Data reported in a melting point compilation (Tetko et al.; mined from patent text by program, amines drawn as free bases though some values may be those of a salt).

| melting point | SMILES |
| --- | --- |
| 219 to 220 °C | Cc1ccc2[nH]c3c(c2c1)CCNC3(C(=O)OC(C)(C)C)C1(NC(=O)OCc2ccccc2)CCC1 (stereo not drawn) |
| 120 °C | CC(=O)N(C=CC(=Nc1ccccc1)Oc1ccccc1)c1ccccc1 |
| > 210 °C | Oc1ccc(CCNc2ncnc3nccnc23)cc1 |
| 70 °C | O=C(NCCc1ccccc1)[C@@H]1Cc2ccccc2N1S(=O)(=O)c1cccc(CNC(=O)C(F)(F)F)c1 |
| 135 to 138 °C | O=C1OC(c2ccccc2)N=C1CCCNC(=O)c1ccccc1 (stereo not drawn) |
| 157 to 159 °C | COC(=O)C1C(=O)CCN(N2CCCCC2)C1=O (stereo not drawn) |
| > 300 °C | CCn1cc(C(N)=O)c(=O)c2ccc(-c3ccncc3)cc21 |
| 157 to 159 °C | COc1ccc(S(=O)(=O)C(CC(=O)NO)c2ccccc2)cc1 (stereo not drawn) |
| 88 °C | CCCCCCc1cc2c(cc1OCCCC(=O)O)C(=O)CC2 |
| 188 to 191 °C | O=C(Nc1ccc(-n2nc(C(F)(F)F)cc2C2CC2)cc1)c1c(F)cccc1F |
| 76 °C | Cc1cc(-n2ccnc2)c2cccc(OCc3c(Cl)ccc(S(=O)(=O)N4CCC[C@H]4CO)c3Cl)c2n1 |
| 160 to 161 °C | CS(=O)(=O)c1ccc(-c2cocc2-c2ccc(F)cc2)cc1 |
| 97 to 98 °C | N#CCCCNc1cccc(/C=C/c2nc3ccccc3s2)c1 |
| 44 to 45 °C | COc1ccc(-n2cnc3cc(N)ccc32)cc1 |
| 92.9 °C | CCOCc1nnc2c(C)c(Cl)ccn12 |
| 190 to 191 °C | Cc1oc(-c2ccccc2)nc1Cc1cc2cc(CC3OC(=O)NC3=O)ccc2o1 (stereo not drawn) |
| 144 to 145 °C | Cc1noc(-c2ccccc2)c1-c1ccc(S(C)(=O)=O)cc1 |
| 225 to 228 °C | O=C(O)C(=O)c1ccc(OCc2ccc3ccccc3n2)cc1 |
| 108 to 109 °C | COC(=O)c1cnc(OC)c(N)c1 |
| 196 °C | CC(=O)Nc1ccc(C=CC(=O)O)c(NC(=O)NC(=O)c2cc(F)c(F)cc2Cl)c1 |
| 89 °C | COc1ccc(CN2C(=O)C(C)(c3cc(C(=O)N(C)CC(F)(F)F)ccc3Cl)c3cc(Cl)ccc32)c(OC)c1 (stereo not drawn) |
| 129 to 131 °C | CN1CCC(=O)C(=C(c2ccccc2)c2ccccc2)C1 |
| 231 to 234 °C | CCCCc1ncc(/C=C(\Cc2cccs2)c2nnn[nH]2)n1Cc1ccccc1[N+](=O)[O-] |
| 164 °C | N=C(N)NC(=O)c1cn(-c2ccnc3ccccc23)c2ncccc12 |

| melting point | SMILES |
| --- | --- |
| 235 to 237 °C | COc1cc(F)ccc1C(O)C1CCCCn2c1nc(-c1ccncn1)cc2=O (racemic) |
| 58 to 59 °C | COc1ccc2sc(C3=C(C(C)(C)C)C(C)(C)CO3)cc2c1 |
| 90 to 92 °C | CCN(CC)CCOc1ccc(Nc2ncc3c(n2)N(C)C(=O)N(C2CCCCC2)C3)cc1 |
| 164 to 165 °C | CSc1ccc(-c2coc3ccc(-c4nnc([C@H](C)O)o4)cc23)cc1 |
| 142 to 143 °C | O=C(NCC(F)F)/C(=C/c1ccc(OC(F)(F)F)cc1)NC(=O)c1ccc(OCCC(F)(F)F)cc1 |
| 94 to 96 °C | CC(C)(C)OC(=O)N1CCC(Nc2ncc3c(n2)-c2ccccc2C(c2ccc(Cl)c(Cl)c2)C3)CC1 (stereo not drawn) |
| 127 to 135 °C | O=[N+]([O-])c1ccccc1NN=Cc1ncc(C(F)(F)F)cc1Cl |
| 174 to 176 °C | CC1NC(=O)N(c2ccc(F)c(Cl)c2)C1=O (stereo not drawn) |
| 163 to 165 °C | Cc1ccc(-n2cnc(OC(C)C(=O)O)n2)cc1 (stereo not drawn) |
| 144 to 145 °C | Cc1ccc(-n2nc(C(F)(F)F)cc2-c2ccc(S(C)(=O)=O)c(F)c2)cc1Cl |
| 52 to 53 °C | CCOC(=O)c1ccc(OCC(C)O)cc1 (stereo not drawn) |
| 219 to 222 °C | Cc1coc(NC(=O)C2c3ccccc3Oc3ccccc32)n1 |
| 260 °C | Nc1nc2c([N+](=O)[O-])cc(OC(F)(F)F)cc2s1 |
| 161 to 165 °C | CCC(C)(C)NC(Nc1ccc2c(c1)OCO2)=C(C#N)C(=O)C(C)(C)C |
| 120 to 121 °C | CN(C)C(=S)SC(C[N+](=O)[O-])c1cc([N+](=O)[O-])ccc1Cl (stereo not drawn) |
| 99 to 101 °C | O=C(O)Cc1cc(F)ccc1OCCc1ccccc1 |
| 250 to 252 °C | O=C(O)c1sc(-c2ccc(C(F)(F)F)cc2)nc1CO |
| 165 to 167 °C | Cc1nnc2ccc(-c3cccc(Cl)c3)nn12 |
| 110 to 150 °C | Cc1ccc(CN(C)C(=O)c2cnn(C)c2C(=O)Nc2ccn3nc(-c4ccccc4)nc3c2)cn1 |
| 94 to 95 °C | CCOC(=O)CCc1cn(-c2ccc(Br)cn2)nc1C(C)(C)C |
| 120 °C | O=C(O)Cc1ccc(C(=O)c2cccc(C(F)(F)F)c2)s1 |
| 145 to 147 °C | COc1ccc(C(=O)NS(=O)(=O)C=Cc2ccc(Cl)c(Cl)c2)cc1OC |
| 179 to 182 °C | CC1(C)Cc2nc(C3CCCC3)c(C(=O)c3ccc(C(F)(F)F)cc3)c(-c3ccsc3)c2C(O)C1 (stereo not drawn) |
| 43 to 44 °C | CCN(c1nc2c(cc1CN(Cc1cc(C(F)(F)F)cc(C(F)(F)F)c1)c1nnn(C)n1)c(C)nn2C)C1CCCC1 |

| melting point | SMILES |
| --- | --- |
| > 250 °C | O=C(O)c1nc2c(=O)[nH]c3cc(C(F)(F)F)ccc3n2c1CP(=O)(O)O |
| 155 to 156 °C | S=C(NCCCN1CCN(Cc2ccc(Cl)cc2)CC1)Nc1ccccc1 |
| 172 to 173 °C | COc1ccc(S(=O)(=O)Nc2cccnc2Nc2ccccc2)cc1 |
| 215 to 217 °C | COc1cc2c(Nc3cc(OC)c(OC)c(OC)c3)c(C#N)cnc2cc1F |
| 164 to 166 °C | OCc1ccccc1-c1ccc2nc(-c3ccc(Cl)cc3)cn2c1 |
| 188 °C | CN1C(C(=O)NC2CCC(O)CC2)C(c2cccc(Cl)c2F)C2(C(=O)Nc3cc(Cl)ccc32)C1CC(C)(C)C (stereo not drawn) |
| 179 to 180 °C | CS(=O)(=O)c1cccc(-c2ccccc2NC(=S)NC(=O)c2ccccc2)c1 |
| 254 to 256 °C | NS(=O)(=O)c1ccc(-n2nc(C(F)(F)F)cc2-c2nc3ccccc3s2)cc1 |
| 63 to 64 °C | CCOC(=O)C1=C(Cl)/C(=N/OS(C)(=O)=O)CC(c2ccc(Cl)cc2F)N1 (stereo not drawn) |
| 197 to 198 °C | COc1ccc(-c2ccc(S(=O)(=O)CC(C)N(O)C=O)cc2)cc1 (stereo not drawn) |
| 110 to 112 °C | CCOCC1OC(n2cnc3c(N)ncnc32)C(O)C1O (stereo not drawn) |
| 110 to 112 °C | COc1ccc2c(cc(C)n2-c2ncnc3cc(Cl)ccc23)c1CC(=O)O |
| 160 to 161 °C | NC(=O)C1(CCCNC=O)c2ccccc2-c2ccccc21 |
| 81 to 82 °C | Nn1cccc1C(=O)c1cccs1 |
| 100 °C | CCCS(=O)(=O)c1ccc2c(c1)C(=O)CC2 |
| 160 to 162 °C | O=C(CCN1CCC(C(O)(c2ccc(F)cc2)c2ccc(F)cc2)CC1)N(c1ccccc1)c1ccccc1 |
| 110 to 114 °C | CCCCc1oc2ccccc2c1C(=O)c1cc(Cl)c(O)c(Cl)c1 |
| 178 to 179 °C | Cn1cc(C(=O)NCc2ccc(Cl)cc2)c(=O)c2cc(CN3CCCOCC3)ccc21 |
| 68 to 69 °C | Cc1ccc(Oc2ccc(C(=O)c3ccc(Oc4ccc(C)c(C)c4)cc3)cc2)cc1C |
| 110 to 113 °C | Cc1c(C(=O)NCc2ccc3c(Br)c(OC(Cc4ccccc4)C(=O)O)ccc3c2)oc2ccccc12 (stereo not drawn) |
| 86 to 88 °C | O=c1n(CCCF)nnn1-c1ccc(OCc2ccc(F)cc2)cc1F |
| 145 to 147 °C | Cc1ccc([C@H](CC(=O)O)NC(=O)Nc2c(N)cc(C)n(Cc3ccccc3Cl)c2=O)cc1 |
| 118 °C | CNc1nc(C(C)c2ccc(-c3ccccc3)c(F)c2)c(C(=O)NO)s1 (stereo not drawn) |
| 155 to 156 °C | O=C(O)CCC(Cc1ccc(Cl)c(Cl)c1)(C(=O)C=Cc1ccc(Cl)cc1)c1ccccc1 (stereo not drawn) |

| melting point | SMILES |
| --- | --- |
| 174 to 175 °C | CC1(C)CCC(C)(C)c2cc(C(Br)C(Br)c3ccc(C#N)cc3)ccc21 (stereo not drawn) |
| 160 to 162 °C | O=[N+]([O-])c1cccc(NN=C(c2ccc(O)cc2)c2ccc(O)cc2)c1 |
| 198 to 206 °C | Cc1ccc2c(c1)N(CC(=O)c1cccs1)C(=O)C(NC(=O)Nc1cccc(C(=O)O)c1)CN2C(=O)C(C)(C)C (stereo not drawn) |
| 164 to 166 °C | Nc1cc(C(=O)O)c(F)c(F)c1F |
| 142 to 143 °C | CC(C)c1ccc2c(c1)c(Sc1ccccc1C(C)C)c(CC(C)(C)C(=O)O)n2Cc1ccc(Cl)cc1 |
| 194 to 196 °C | COc1ccc(CC2CCC3NC(=O)CCC3C2)cc1 (stereo not drawn) |
| 49 to 51 °C | Cc1nn(-c2cc(Oc3ccc(OC(C)C(=O)O)cn3)c(Cl)cc2F)c(=O)n1C(F)F (stereo not drawn) |
| 145 to 146 °C | CCN(CC)C(=O)CCCC1CCN(Cc2cnc3c(C)c(NC(=O)c4ccc(-c5ccc(F)cc5)cc4)ccc3c2)CC1 |
| 194 to 196 °C | CCn1cc(C(=O)NCc2ccc(Cl)cc2)c(=O)c2cc(CN3CCOCC3)sc21 |
| 100 to 101 °C | CCOCc1cc2cc(Cl)ccc2oc1=O |
| 147 °C | Nc1ccc(C(c2ccc(F)cc2)n2ccnc2)cc1[N+](=O)[O-] (stereo not drawn) |
| 100 to 101 °C | O=Cc1cn(Cc2ccc(OCc3ccccc3)cc2)cc1-c1ccccc1 |
| 66 to 67 °C | COc1c(OCc2ccccc2)ccc2cc[nH]c12 |
| 233 to 236 °C | Cc1ccn2c(Br)c(CCc3ccc4nc(N)sc4c3)nc2c1 |
| 246 °C | CC(C)(C)c1cc(-c2n[nH]c(=O)o2)cc(C(C)(C)C)c1O |
| 121 to 123 °C | CC(C(=O)O)c1ccc(N(C)c2nccs2)cc1 (stereo not drawn) |
| 134 to 135 °C | OCc1cc2cc(-c3ccccc3)ccc2o1 |
| 156 to 159 °C | CCON=C(CC)C1=C(O)CC(c2ccc3c(c2)N(CC#N)C(=O)CO3)CC1=O (stereo not drawn) |
| 289 to 302 °C | O=c1ccc(-c2ccccc2O)n[nH]1 |
| 42 to 45 °C | O=C(Cc1ccccc1)c1ccc(SC(F)F)cc1 |
| 95 to 96 °C | CCCCCCCCCC[C@H](NP(=O)(c1ccccc1)c1ccccc1)c1ccccc1 |
| 131 to 133 °C | C[C@@](O)(C(=O)Nc1ccc(S(=O)(=O)c2ccc(F)cc2)cc1Cl)C(F)(F)F |

| SMILES | melting point |
| --- | --- |
| CN1CCN(c2cnc3ccccc3n2)CC1 | 109 to 111 °C |
| COC(=O)[C@]12CN(Cc3ccccc3)C[C@@H]1C(=O)CC[C@@]2(C)c1ccccc1 (racemic) | 115 °C |
| N=c1cc(NCCCCc2c[nH]cn2)ccs1 | 209 to 211 °C |
| FCc1cccc(-c2ccc(-c3cn([C@H]4CN5CCC4CC5)nn3)s2)c1 | 144 °C |
